# ChEMBL document CHEMBL4507276 (2021)
# Key:
# [1] = biological target: Ephrin type-A receptor 6 (Homo sapiens) (UniProt Q9UF33); details: Compound concentration 1000.0 nM
# [2] = biological target: Tyrosine-protein kinase Fyn (Homo sapiens) (UniProt P06241); details: Compound concentration 1000.0 nM
# [3] = biological target: Serine/threonine-protein kinase N2 (Homo sapiens) (UniProt Q16513); details: Compound concentration 1000.0 nM
# [4] = biological target: Epidermal growth factor receptor (Homo sapiens) (UniProt P00533); details: Compound concentration 1000.0 nM
# Epidermal growth factor receptor (Homo sapiens), sequence (P00533 whole entry): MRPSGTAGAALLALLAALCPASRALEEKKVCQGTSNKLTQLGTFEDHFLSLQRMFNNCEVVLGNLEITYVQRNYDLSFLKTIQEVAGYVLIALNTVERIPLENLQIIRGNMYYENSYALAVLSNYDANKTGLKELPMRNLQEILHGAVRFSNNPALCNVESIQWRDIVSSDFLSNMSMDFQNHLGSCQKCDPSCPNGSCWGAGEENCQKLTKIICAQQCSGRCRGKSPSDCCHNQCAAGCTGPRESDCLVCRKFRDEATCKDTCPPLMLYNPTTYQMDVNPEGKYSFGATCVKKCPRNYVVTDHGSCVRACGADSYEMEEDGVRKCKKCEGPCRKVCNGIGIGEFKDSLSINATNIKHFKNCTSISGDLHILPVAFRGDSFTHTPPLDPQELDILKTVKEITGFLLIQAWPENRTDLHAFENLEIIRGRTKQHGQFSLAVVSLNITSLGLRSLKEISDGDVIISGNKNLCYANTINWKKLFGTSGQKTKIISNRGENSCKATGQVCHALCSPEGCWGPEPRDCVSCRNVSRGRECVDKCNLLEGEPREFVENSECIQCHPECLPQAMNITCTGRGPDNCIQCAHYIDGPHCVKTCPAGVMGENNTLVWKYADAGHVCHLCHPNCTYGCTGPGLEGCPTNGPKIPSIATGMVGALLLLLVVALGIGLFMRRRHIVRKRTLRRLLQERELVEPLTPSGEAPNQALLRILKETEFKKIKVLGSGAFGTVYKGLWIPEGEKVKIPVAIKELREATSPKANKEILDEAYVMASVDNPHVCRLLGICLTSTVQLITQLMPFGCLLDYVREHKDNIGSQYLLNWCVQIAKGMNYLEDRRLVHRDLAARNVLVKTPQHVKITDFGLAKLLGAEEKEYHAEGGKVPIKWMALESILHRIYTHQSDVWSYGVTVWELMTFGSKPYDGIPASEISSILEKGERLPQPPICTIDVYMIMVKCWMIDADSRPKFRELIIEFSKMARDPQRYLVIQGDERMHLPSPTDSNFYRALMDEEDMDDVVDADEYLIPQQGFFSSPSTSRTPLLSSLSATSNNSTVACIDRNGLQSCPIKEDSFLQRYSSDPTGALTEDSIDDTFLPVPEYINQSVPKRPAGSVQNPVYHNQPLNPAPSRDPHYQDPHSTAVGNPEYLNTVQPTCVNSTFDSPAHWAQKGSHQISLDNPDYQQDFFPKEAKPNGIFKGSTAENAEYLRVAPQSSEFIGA
# [5] = biological target: Mitogen-activated protein kinase 11 (Homo sapiens) (UniProt Q15759); details: Compound concentration 1000.0 nM
# [6] = biological target: Serine/threonine-protein kinase 10 (Homo sapiens) (UniProt O94804); details: Compound concentration 1000.0 nM
# [7] = biological target: T1, Serine/threonine-protein kinase TAO3 (Homo sapiens) (UniProt Q9H2K8); details: Compound concentration 1000.0 nM
# T1 sequence (whole entry): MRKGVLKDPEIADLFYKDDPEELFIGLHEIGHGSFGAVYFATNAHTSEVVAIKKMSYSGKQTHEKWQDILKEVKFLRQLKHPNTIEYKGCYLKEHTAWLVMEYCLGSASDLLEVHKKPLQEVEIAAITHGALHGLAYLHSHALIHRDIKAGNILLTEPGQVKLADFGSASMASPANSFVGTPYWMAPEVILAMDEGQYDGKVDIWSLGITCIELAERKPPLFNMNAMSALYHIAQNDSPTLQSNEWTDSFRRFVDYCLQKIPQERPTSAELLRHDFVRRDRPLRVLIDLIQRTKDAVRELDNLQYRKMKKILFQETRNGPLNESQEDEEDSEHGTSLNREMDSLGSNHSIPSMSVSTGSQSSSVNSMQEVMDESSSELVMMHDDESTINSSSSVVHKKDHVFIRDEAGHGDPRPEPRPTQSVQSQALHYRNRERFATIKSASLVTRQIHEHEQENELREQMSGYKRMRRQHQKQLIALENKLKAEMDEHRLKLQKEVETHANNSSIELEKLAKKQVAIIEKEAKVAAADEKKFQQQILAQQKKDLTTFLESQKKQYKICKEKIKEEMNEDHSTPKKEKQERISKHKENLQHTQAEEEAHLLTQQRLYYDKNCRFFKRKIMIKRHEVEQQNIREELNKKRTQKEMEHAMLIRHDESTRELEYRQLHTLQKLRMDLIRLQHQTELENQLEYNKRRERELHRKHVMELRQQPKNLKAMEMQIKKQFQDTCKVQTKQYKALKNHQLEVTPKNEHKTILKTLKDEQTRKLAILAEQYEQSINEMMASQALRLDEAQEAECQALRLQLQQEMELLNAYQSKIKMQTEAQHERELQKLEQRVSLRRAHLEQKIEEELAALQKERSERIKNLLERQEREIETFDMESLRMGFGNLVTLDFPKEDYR
# [8] = test system: Tyrosine-protein kinase ABL1 (Homo sapiens), P00519 [Q252H]; details: Compound concentration 1000.0 nM
# [9] = biological target: MAP kinase-interacting serine/threonine-protein kinase 1 (Homo sapiens) (UniProt Q9BUB5); details: Compound concentration 1000.0 nM
# MAP kinase-interacting serine/threonine-protein kinase 1 (Homo sapiens), sequence (Q9BUB5 whole entry, looked up): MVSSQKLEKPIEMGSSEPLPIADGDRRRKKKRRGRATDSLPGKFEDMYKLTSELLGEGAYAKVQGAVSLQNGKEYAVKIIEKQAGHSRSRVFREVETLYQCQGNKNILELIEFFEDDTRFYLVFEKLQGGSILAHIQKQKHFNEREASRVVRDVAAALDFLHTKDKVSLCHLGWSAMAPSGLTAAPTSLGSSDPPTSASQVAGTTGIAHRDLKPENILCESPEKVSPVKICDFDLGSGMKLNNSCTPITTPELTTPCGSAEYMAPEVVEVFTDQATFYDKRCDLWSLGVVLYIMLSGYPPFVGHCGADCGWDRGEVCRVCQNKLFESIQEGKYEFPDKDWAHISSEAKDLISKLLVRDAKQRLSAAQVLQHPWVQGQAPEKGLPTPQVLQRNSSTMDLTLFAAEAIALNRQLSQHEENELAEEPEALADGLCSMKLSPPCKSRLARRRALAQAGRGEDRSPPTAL
# [10] = test system: Tyrosine-protein kinase ABL1 (Homo sapiens), P00519 [H396P]; details: Compound concentration 1000.0 nM
# [11] = biological target: Mitogen-activated protein kinase kinase kinase kinase 5 (Homo sapiens) (UniProt Q9Y4K4); details: Compound concentration 1000.0 nM
# [12] = biological target: Serine/threonine-protein kinase SIK3 (Homo sapiens) (UniProt Q9Y2K2); details: Compound concentration 1000.0 nM
# [13] = test system: Epidermal growth factor receptor (Homo sapiens), P00533 [UNDEFINED MUTATION]; details: Compound concentration 1000.0 nM
# Epidermal growth factor receptor (Homo sapiens), P00533 [UNDEFINED MUTATION], sequence (P00533 whole entry, looked up, change not shown): as the sequence (P00533 whole entry) above
# [14] = biological target: Ribosomal protein S6 kinase alpha-6 (Homo sapiens) (UniProt Q9UK32); details: Compound concentration 1000.0 nM
# [15] = biological target: Phosphatidylinositol 4,5-bisphosphate 3-kinase catalytic subunit alpha isoform (Homo sapiens) (UniProt P42336); details: Compound concentration 1000.0 nM
# Phosphatidylinositol 4,5-bisphosphate 3-kinase catalytic subunit alpha isoform (Homo sapiens), sequence (P42336 whole entry, canonical isoform): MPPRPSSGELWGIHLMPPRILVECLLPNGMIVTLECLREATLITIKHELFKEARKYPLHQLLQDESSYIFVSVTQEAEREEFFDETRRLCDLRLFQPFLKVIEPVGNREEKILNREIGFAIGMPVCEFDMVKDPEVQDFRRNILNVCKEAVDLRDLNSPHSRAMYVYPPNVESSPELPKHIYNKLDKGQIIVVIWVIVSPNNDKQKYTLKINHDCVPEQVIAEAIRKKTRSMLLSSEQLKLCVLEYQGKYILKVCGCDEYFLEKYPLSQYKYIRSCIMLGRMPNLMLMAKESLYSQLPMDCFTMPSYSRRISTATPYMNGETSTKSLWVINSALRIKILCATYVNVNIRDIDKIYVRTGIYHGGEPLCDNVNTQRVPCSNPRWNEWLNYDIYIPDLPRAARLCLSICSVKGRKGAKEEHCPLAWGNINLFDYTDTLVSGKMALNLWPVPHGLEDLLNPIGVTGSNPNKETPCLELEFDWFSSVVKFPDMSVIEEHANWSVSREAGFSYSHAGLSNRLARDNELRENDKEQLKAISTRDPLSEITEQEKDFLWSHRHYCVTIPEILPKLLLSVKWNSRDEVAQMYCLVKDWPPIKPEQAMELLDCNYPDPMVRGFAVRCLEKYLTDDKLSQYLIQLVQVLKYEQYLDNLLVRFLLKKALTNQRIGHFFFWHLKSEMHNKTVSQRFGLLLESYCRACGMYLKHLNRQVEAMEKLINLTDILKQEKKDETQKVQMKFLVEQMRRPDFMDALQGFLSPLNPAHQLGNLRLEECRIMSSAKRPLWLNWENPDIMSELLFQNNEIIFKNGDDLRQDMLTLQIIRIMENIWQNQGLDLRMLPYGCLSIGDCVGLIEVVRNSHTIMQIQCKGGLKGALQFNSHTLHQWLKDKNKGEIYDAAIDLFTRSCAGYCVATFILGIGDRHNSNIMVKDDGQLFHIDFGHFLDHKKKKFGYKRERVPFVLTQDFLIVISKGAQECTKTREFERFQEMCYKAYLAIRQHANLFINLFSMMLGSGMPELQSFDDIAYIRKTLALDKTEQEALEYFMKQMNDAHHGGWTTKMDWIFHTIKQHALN
# [16] = biological target: Histamine H3 receptor (Homo sapiens) (UniProt Q9Y5N1); details: Compound concentration 10.0 uM
# [17] = biological target: T2, Mitogen-activated protein kinase kinase kinase 3 (Homo sapiens) (UniProt Q99759); details: Compound concentration 1000.0 nM
# T2 sequence (whole entry): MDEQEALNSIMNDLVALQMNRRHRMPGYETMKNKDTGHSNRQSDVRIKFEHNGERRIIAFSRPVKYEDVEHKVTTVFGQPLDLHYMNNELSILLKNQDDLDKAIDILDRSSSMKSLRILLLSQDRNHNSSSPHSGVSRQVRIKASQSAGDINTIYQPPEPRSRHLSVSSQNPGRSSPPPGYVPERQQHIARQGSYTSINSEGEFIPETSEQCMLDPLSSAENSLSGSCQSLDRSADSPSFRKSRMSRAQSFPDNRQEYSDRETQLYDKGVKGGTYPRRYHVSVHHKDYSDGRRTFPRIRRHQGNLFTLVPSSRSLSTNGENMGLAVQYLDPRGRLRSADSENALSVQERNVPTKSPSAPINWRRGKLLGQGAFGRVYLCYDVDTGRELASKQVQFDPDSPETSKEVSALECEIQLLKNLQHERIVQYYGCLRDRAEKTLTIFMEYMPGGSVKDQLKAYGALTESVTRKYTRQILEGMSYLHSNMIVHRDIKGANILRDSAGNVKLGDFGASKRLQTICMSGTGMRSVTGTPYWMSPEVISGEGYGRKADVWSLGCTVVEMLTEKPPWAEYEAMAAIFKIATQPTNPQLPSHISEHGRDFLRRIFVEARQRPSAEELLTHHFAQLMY
# [18] = biological target: Cyclin-G-associated kinase (Homo sapiens) (UniProt O14976); details: Compound concentration 1000.0 nM
# [19] = test system: Hepatocyte growth factor receptor (Homo sapiens), P08581 [M1250T]; details: Compound concentration 1000.0 nM
# [20] = test system: Receptor-type tyrosine-protein kinase FLT3 (Homo sapiens), P36888 [UNDEFINED MUTATION]; details: Compound concentration 1000.0 nM
# [21] = biological target: Calcium/calmodulin-dependent protein kinase type II subunit gamma (Homo sapiens) (UniProt Q13555); details: Compound concentration 1000.0 nM
# Ephrin type-A receptor 6 (Homo sapiens), sequence (Q9UF33 whole entry): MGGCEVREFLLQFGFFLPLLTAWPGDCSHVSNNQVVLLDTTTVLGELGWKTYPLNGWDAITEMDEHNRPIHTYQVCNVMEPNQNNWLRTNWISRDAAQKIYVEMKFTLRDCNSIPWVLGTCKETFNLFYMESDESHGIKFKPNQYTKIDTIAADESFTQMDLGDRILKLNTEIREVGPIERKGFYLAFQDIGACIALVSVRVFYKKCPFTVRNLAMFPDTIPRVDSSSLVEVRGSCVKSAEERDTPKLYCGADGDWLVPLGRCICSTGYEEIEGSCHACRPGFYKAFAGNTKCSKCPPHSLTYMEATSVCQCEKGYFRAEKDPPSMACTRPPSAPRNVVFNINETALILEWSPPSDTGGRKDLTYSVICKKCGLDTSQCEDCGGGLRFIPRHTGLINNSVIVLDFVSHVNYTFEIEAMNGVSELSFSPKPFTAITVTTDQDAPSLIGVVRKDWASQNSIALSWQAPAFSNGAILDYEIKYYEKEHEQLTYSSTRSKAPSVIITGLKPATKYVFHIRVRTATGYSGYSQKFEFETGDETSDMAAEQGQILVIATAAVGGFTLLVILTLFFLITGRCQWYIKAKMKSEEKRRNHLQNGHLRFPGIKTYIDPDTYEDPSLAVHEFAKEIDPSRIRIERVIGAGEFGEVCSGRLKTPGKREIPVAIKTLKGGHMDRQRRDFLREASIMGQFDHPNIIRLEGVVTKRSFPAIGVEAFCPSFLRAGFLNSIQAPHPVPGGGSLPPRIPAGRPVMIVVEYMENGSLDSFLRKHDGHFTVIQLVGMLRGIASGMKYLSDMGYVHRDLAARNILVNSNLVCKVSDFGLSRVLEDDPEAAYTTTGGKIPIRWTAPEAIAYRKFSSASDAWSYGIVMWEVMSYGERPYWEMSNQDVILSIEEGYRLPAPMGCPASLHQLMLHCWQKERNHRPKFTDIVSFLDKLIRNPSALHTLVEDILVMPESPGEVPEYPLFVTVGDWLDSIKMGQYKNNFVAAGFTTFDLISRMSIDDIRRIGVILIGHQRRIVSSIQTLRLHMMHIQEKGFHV
Structure (SMILES),residual activity [1],residual activity [2],residual activity [3],residual activity [4],residual activity [5],residual activity [6],residual activity [7],residual activity [8],residual activity [9],residual activity [10],residual activity [11],residual activity [12],residual activity [13],residual activity [14],residual activity [15],inhibition [16],residual activity [17],residual activity [18],residual activity [19],residual activity [20],further results
CN(C)C(=O)Cn1cc(-c2nc(C3(c4ccc(-c5cnc(N)nc5)cc4)CC3)no2)cn1 [BI 0153],99%,100%,77%,93%,86%,100%,67%,48%,85%,100%,89%,100%,80%,83%,76%,3.45%,81%,100%,100%,100%,residual activity [21]: 98%
CN(C)C(=O)Cn1cc(-c2nc([C@@](C)(c3ccc(-c4cnc(N)nc4)cc3)C3CC3)no2)cn1 [BI 665915],100%,86%,100%,93%,97%,89%,89%,0%,85%,80%,86%,70%,100%,96%,96%,11%,86%,100%,93%,100%,residual activity [21]: 100%
